# Active and inactive are the calls of the source. No cut-off for these calls is given here.
# How the values were obtained:
# A549 [1] = experiment: Induction of apoptosis in human A549 cells assessed as late apoptotic cells at 2 uM incubated for 24 hrs by Annexin V-FITC/PI staining based flow cytometric analysis (reference value: 2.18%); format: functional
# [2] = Toxicity in female BALB/c nu/nu mouse xenografted with human A549 cells assessed as effect on heart at 2.5 mg/kg, iv by H and E staining based analysis; format: organism-based; settings: in vivo
# [3] = molecular target: Signal transducer and activator of transcription 3 (Homo sapiens, UniProt P40763); experiment: Inhibition of STAT3 phosphorylation in human A549 cells at 0.1 to 8 uM incubated for 12 hrs by Western blot analysis; format: cell-based; settings: dose 0.1-8 µM
# Sequence of Signal transducer and activator of transcription 3 (P40763 whole entry): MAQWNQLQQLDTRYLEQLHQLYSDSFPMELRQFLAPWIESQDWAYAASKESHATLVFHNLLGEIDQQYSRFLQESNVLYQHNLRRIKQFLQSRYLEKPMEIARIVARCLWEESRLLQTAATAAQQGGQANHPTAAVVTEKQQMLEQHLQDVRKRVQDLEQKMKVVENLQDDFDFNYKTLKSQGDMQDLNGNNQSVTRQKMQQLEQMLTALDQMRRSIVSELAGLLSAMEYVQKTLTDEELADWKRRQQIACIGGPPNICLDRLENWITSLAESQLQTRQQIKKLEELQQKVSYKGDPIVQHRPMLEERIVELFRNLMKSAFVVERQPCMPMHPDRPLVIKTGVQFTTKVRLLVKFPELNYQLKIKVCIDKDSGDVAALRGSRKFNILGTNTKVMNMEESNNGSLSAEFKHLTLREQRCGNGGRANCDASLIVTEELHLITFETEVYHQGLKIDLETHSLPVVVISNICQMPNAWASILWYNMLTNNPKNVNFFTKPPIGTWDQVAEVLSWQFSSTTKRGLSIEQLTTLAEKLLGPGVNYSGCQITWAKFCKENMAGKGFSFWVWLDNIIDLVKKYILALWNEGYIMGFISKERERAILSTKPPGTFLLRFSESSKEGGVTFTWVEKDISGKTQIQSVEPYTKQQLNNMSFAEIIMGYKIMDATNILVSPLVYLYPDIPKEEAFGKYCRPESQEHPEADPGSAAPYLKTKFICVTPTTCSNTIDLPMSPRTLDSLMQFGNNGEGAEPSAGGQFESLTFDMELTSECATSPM
# [4] = Toxicity in female BALB/c nu/nu mouse xenografted with human A549 cells assessed as effect on body weight at 5 mg/kg, iv using self assembled nanoparticle as source of compound and measured regularly; format: organism-based; settings: in vivo
# A549 [5] = experiment: Induction of autophagy in human A549 cells transfected with mRFP-GFP-LC3 assessed as increase in LC3-II:LC3-I protein level at 0.5 uM by Western blot analysis; format: functional, cell-based; settings: time 0-72 hrs, TDE = time-dependent effect
# [6] = molecular target: Signal transducer and activator of transcription 4 (Homo sapiens, UniProt Q14765); experiment: Binding affinity to STAT4 (unknown origin) assessed as dissociation constant by SPR assay
# Sequence of Signal transducer and activator of transcription 4 (Q14765 whole entry): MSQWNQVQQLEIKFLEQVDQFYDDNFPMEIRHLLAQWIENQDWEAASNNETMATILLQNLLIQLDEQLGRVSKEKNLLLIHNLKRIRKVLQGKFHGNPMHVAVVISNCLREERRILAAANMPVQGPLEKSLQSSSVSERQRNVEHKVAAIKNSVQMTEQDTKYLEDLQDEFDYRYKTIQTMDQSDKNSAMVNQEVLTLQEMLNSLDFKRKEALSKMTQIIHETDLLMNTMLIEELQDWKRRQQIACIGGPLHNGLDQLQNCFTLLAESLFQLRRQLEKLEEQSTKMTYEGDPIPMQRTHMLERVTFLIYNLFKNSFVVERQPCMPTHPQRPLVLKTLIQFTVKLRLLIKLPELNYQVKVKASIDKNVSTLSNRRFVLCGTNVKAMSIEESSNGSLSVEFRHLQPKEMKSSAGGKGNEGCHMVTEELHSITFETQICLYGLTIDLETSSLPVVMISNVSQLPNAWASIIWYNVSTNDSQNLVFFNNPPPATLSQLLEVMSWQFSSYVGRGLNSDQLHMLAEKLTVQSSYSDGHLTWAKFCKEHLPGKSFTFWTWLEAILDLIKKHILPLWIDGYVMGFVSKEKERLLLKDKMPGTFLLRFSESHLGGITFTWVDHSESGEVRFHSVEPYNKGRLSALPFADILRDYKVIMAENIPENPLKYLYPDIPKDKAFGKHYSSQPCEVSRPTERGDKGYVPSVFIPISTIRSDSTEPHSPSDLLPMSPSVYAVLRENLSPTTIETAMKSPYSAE
# HepG2 = experiment: Anticancer activity against human HepG2 cells assessed as cell viability incubated for 72 hrs using self assembled nanoparticle as source of compound by CCK-8 assay; format: functional, cell-based; settings: HepG2, 72 h
# [7] = Toxicity in female BALB/c nu/nu mouse xenografted with human A549 cells assessed as effect on lung at 2.5 mg/kg, iv by H and E staining based analysis; format: organism-based; settings: in vivo
# [8] = Toxicity in female BALB/c nu/nu mouse xenografted with human A549 cells assessed as effect on liver at 5 mg/kg, iv by H and E staining based analysis; format: organism-based; settings: in vivo
# Histone deacetylase 8 = Histone deacetylase 8 (Homo sapiens, UniProt Q9BY41); experiment: Inhibition of recombinant human HDAC8 using Boc-Lys (trifluroacetyl)-AMC as substrate preincubated with compound for 1 hr followed by substrate addition and measured after 30 mins by microplate reader assay
# Sequence of Histone deacetylase 8 (Q9BY41 whole entry): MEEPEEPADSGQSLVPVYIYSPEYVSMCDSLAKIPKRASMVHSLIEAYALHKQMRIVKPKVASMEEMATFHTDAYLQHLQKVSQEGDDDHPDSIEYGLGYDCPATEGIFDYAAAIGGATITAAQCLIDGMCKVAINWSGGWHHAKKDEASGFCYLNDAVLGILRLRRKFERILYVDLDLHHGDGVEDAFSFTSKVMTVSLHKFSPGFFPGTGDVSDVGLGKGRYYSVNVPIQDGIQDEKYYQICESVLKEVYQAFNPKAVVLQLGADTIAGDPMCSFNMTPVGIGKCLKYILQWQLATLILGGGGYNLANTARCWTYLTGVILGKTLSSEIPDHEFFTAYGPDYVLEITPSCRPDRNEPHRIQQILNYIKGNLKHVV
# A549 [9] = experiment: Induction of apoptosis in human A549 cells assessed as early apoptotic cells at 4 uM incubated for 24 hrs by Annexin V-FITC/PI staining based flow cytometric analysis (reference value: 1.53%); format: functional
# [10] = molecular target: Polyamine deacetylase HDAC10 (Homo sapiens, UniProt Q969S8); experiment: Inhibition of recombinant human HDAC10 using Boc-Lys (trifluroacetyl)-AMC as substrate preincubated with compound for 1 hr followed by substrate addition and measured after 30 mins by microplate reader assay
# Sequence of Polyamine deacetylase HDAC10 (Q969S8 whole entry): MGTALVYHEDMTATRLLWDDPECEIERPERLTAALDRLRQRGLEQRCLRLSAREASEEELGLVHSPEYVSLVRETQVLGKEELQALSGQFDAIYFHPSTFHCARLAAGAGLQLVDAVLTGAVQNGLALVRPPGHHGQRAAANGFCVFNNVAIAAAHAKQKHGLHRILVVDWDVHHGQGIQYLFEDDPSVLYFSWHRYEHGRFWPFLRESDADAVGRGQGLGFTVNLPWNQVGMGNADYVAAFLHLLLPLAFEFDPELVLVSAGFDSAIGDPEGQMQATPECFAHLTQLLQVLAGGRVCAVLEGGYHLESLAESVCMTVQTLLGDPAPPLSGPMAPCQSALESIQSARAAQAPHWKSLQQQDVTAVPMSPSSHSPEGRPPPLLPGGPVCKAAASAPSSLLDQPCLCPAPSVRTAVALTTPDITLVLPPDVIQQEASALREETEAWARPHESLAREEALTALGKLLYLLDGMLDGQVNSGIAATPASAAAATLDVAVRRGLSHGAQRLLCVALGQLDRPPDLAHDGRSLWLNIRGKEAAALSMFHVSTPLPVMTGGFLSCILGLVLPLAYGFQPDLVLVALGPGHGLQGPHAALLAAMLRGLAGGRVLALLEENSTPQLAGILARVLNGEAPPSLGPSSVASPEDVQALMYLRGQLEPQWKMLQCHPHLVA
# A549 [11] = experiment: Induction of autophagy in human A549 cells assessed as upregulation of LC3-II at 4 uM incubated for 12 hrs by Western blot analysis
# [12] = molecular target: Signal transducer and activator of transcription 1-alpha/beta (Homo sapiens, UniProt P42224); experiment: Binding affinity to STAT1 (unknown origin) assessed as dissociation constant by SPR assay
# A549 [13] = experiment: Induction of apoptosis in human A549 cells assessed as necrotic cells at 2 uM incubated for 24 hrs by Annexin V-FITC/PI staining based flow cytometric analysis (reference value: 1.20%); format: functional
# [14] = molecular target: Protein deacetylase HDAC6 (Homo sapiens) (UniProt Q9UBN7); experiment: Inhibition of HDAC6 in human A549 cells assessed as increase in Ac-tubulin at 0.5 uM incubated for 12 hrs by Western blot analysis; format: cell-based
# [15] = Toxicity in female BALB/c nu/nu mouse xenografted with human A549 cells assessed as effect on body weight at 5 mg/kg, iv and measured regularly; format: organism-based; settings: in vivo
# A549 [16] = experiment: Induction of apoptosis in human A549 cells assessed as viable cells at 4 uM incubated for 24 hrs by Annexin V-FITC/PI staining based flow cytometric analysis (reference value: 95.08%); format: functional; settings: read-out: Activity
# Histone deacetylase 5 = Histone deacetylase 5 (Homo sapiens, UniProt Q9UQL6); experiment: Inhibition of recombinant human HDAC5 using Boc-Lys (trifluroacetyl)-AMC as substrate preincubated with compound for 1 hr followed by substrate addition and measured after 30 mins by microplate reader assay
# Sequence of Histone deacetylase 5 (Q9UQL6 whole entry): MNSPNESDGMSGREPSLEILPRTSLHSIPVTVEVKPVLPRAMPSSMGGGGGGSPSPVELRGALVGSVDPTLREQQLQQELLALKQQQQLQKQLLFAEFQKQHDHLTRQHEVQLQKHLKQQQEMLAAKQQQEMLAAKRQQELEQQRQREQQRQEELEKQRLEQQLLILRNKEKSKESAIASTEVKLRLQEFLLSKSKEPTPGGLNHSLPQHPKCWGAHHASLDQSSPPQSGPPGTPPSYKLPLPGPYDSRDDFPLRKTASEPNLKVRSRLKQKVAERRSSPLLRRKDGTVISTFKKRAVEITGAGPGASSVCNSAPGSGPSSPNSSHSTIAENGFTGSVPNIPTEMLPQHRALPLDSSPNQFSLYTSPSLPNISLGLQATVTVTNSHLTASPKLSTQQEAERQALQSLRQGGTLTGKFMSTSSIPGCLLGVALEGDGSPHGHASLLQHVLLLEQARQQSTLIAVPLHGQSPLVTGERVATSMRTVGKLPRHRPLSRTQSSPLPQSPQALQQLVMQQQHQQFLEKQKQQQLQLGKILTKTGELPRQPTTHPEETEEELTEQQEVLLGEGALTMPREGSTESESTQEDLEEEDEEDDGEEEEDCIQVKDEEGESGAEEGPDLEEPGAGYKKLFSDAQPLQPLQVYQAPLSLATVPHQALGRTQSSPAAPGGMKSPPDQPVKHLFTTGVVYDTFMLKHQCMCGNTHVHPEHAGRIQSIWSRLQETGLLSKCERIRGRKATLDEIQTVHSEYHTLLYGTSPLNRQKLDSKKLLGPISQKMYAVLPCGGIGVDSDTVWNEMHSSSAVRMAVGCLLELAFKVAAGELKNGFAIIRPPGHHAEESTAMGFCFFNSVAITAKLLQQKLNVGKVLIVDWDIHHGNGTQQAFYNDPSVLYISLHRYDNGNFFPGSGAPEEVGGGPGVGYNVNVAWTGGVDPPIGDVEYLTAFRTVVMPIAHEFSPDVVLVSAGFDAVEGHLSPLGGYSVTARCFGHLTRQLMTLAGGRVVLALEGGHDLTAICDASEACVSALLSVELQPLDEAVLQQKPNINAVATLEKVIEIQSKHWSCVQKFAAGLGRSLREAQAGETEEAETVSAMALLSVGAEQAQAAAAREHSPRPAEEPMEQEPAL
# [17] = Toxicity in female BALB/c nu/nu mouse xenografted with human A549 cells assessed as effect on heart at 5 mg/kg, iv by H and E staining based analysis; format: organism-based; settings: in vivo
# [18] = Toxicity in female BALB/c nu/nu mouse xenografted with human A549 cells assessed as effect on spleen at 5 mg/kg, iv by H and E staining based analysis; format: organism-based; settings: in vivo
# [19] = molecular target: Class 1 histone deacetylase (Homo sapiens) (UniProt Q13547+O15379+Q92769+Q9BY41); experiment: Inhibition of class 1 HDAC in human A549 cells assessed as increase in […] at 0.5 uM incubated for 12 hrs by Western blot analysis; format: cell-based
# [20] = Drug accumulation in tumor of nude mouse xenografted with A549 cells assessed as increase in fluorescence at 5 mg/kg, iv using chlorine e6 loaded self assembled nanoparticle as source of compound by in vivo fluorescence imaging
# A549 [21] = experiment: Induction of apoptosis in human A549 cells assessed as early apoptotic cells at 2 uM incubated for 24 hrs by Annexin V-FITC/PI staining based flow cytometric analysis (reference value: 1.53%); format: functional
# [22] = Drug uptake in tumor of nude mouse xenografted with A549 cells assessed as accumulation of tumor tissues at 5 mg/kg, iv using self assembled nanoparticle as source of compound by LC-MS/MS analysis; format: ADME, organism-based; settings: in vivo
# [23] = molecular target: Signal transducer and activator of transcription 5B (Homo sapiens, UniProt P51692); experiment: Binding affinity to STAT5B (unknown origin) assessed as dissociation constant by SPR assay
# Sequence of Signal transducer and activator of transcription 5B (P51692 whole entry): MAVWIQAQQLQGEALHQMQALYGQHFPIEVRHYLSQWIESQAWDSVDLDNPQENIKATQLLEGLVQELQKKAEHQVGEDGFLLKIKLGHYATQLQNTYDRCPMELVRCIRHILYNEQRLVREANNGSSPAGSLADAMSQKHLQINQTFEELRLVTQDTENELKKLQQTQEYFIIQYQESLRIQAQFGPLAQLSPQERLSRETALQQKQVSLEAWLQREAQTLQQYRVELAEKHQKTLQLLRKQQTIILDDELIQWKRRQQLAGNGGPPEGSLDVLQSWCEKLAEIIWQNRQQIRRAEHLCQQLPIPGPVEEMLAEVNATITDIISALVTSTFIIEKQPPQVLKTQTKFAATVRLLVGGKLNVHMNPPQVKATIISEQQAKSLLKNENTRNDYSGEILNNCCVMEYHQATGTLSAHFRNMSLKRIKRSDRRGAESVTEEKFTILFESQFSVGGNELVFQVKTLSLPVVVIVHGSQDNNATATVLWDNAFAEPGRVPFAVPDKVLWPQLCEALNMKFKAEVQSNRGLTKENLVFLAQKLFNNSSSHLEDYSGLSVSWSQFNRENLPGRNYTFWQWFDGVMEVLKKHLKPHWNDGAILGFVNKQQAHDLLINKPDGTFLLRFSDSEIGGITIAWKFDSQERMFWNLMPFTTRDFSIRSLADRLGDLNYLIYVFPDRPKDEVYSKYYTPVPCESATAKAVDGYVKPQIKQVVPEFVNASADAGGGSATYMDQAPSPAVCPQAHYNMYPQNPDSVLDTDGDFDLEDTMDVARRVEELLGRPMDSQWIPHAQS
# A549 [24] = experiment: Induction of apoptosis in human A549 cells assessed as necrotic cells at 4 uM incubated for 24 hrs by Annexin V-FITC/PI staining based flow cytometric analysis (reference value: 1.20%); format: functional
# A549 [25] = experiment: Induction of apoptosis in human A549 cells assessed as late apoptotic cells at 4 uM incubated for 24 hrs by Annexin V-FITC/PI staining based flow cytometric analysis (reference value: 2.18%); format: functional
# A549 [26] = experiment: In vivo antitumor activity against human A549 cells xenografted in female BALB/c nu/nu mouse assessed as decrease in STAT3 phosphorylation level at 5 mg/kg, iv administered every 3 days for 9 days by Western blotting analysis; format: functional, organism-based; settings: time 3.0 day
# A549 [27] = experiment: Effect on Bcl-2 protein level in human A549 cells at 4 uM incubated for 12 hrs by Western blot analysis; format: functional, cell-based
# A549 [28] = experiment: In vivo antitumor activity against human A549 cells xenografted in female BALB/c nu/nu mouse assessed as Ac-tubulin at 5 mg/kg, iv administered every 3 days for 9 days by Western blotting analysis; format: functional, organism-based; settings: time 3.0 day
# A549 [29] = experiment: In vivo antitumor activity against human A549 cells xenografted in female BALB/c nu/nu mouse assessed as tumor volume at 5 mg/kg, iv administered every 3 days and measured on 18 day relative to control; format: functional; settings: time 3 day
compound,measurement,setting,value
C=C1C(=O)O[C@@H]2C[C@@]3(C)CC[C@@H](OC(=O)[C@H](C)NC(=O)c4ccc(/C=C/C(=O)NO)cc4)C(=C)[C@@H]3C[C@H]12,Activity,A549 [1],11.86%
same,Activity,[2],Non-Toxic
same,inhibition,[3],Active
same,Activity,[4],Non-Toxic
same,Activity,A549 [5],Tde
same,Kd,[6],Not Active
same,IC50,HepG2,170 nM
same,Activity,[7],Non-Toxic
same,Activity,[8],Non-Toxic
same,IC50,Histone deacetylase 8,1420 nM
same,Activity,A549 [9],5.3%
same,IC50,[10],57.4 nM
same,Activity,A549 [11],Active
same,Kd,[12],Not Active
same,Activity,A549 [13],1.59%
same,inhibition,[14],Active
same,Activity,[15],Non-Toxic
same,viability at 4 µM,A549 [16],56.2%
same,IC50,Histone deacetylase 5,> 10000 nM
same,Activity,[17],Non-Toxic
same,Activity,[18],Non-Toxic
same,inhibition,[19],Active
same,Drug uptake,[20],Active
same,Activity,A549 [21],4.07%
same,Drug uptake,[22],Active
same,Kd,[23],Not Active
same,Activity,A549 [24],2.99%
same,Activity,A549 [25],35.53%
same,Activity,A549 [26],Active
same,Activity,A549 [27],inactive
same,Activity,A549 [28],Active
same,Activity,A549 [29],47.3%

# From ChEMBL document CHEMBL6071142, “Isoalantolactone/hydroxamic acid hybrids as potent dual STAT3/HDAC inhibitors and self-assembled nanoparticles for cancer therapy” (Eur J Med Chem, 2024)
